# Test results reported in PMC5730604.
# Positions of bridges follow the written chain, without caps; N, C: chain ends. Non-standard residues stand in square brackets, D forms with d. Residues, ends and D or L forms follow the SMILES beside them. *: point of attachment. PEG28 = NCCOCCOCCOCCOCCOCCOCCOCCOCCOCCOCCOCCOCCOCCOCCOCCOCCOCCOCCOCCOCCOCCOCCOCCOCCOCCOCCOCCOCCC(=O)O; Tyr(3-NO2) = N[C@@H](Cc1ccc(O)c([N+](=O)[O-])c1)C(=O)O; Hyp = O=C(O)[C@@H]1C[C@@H](O)CN1; For = O=C*
# Experiments:
# human granulocytes = assay: Oxidative burst (dihydro-rhodamine oxidation) assay; type: cell-based; details: compared with the non-PEGylated effector
# Protocol: Activation of the oxidative burst (phagocyte NADPH oxidase) was measured using a
# dihydrorhodamine (DHR, Molecular Probes) oxidation assay, based on a method described
# previously1. In brief, 200 µl samples of human, murine or guinea pig leukocytes (1.25x 106
# cells/ml in HHBS + 10 mM Hepes, pH 7.3, 0.3% BSA and 5 mM EDTA) were loaded with DHR
# and catalase (Sigma-Aldrich) and cytochalasin B (Sigma-Aldrich) were added. Cells were pre-
# incubated at 37°C for 10 min followed by the addition of 50 µl of effector dilutions (5x the
# intended concentration) in the same buffer and another 15 min of incubation at 37°C. Phorbol
# (§1) 12- m yr ist oyl 13-acetate (P MA , 3 µg/ml) was used as a positive control. All samples were f ixed
# (§2) in 1% formaldehyde Hoechst 33258 solution (0.5 µg/ml) was added and cells were k ept on ice
# (§3) until analysis using a FACS Canto system. After gating for live cells and granulocytes (human
# (§4) cells) or non- lymphocytes (murine cells) in the FSC/SSC plot, rhodamine-positive cells were
# (§5) identif ied in a PE/SSC plot, using an unstimulated sample as a reference.
# (§6) Human monocytes, after an overnight pre- culture, were incubated f or 6 more hours in 1 ml
# (§7) RPMI+10% FCS containing 100 nM F2- 2PEG, 0.1 ng/ml LPS (Sigma- Aldrich), or no stimulus.
# (§8) All experiments were performed in duplicates. […]
# human leukocytes = assay: Chemotaxis assay; type: cell-based; details: compared with the non-PEGylated effector
# Protocol: (§9) Human leukocytes were re-suspended in Hank ’s Buffered Saline Solution (HBSS, without
# (§10) Ca2+, Mg 2+) with 10 mM Hepes pH 7.3 and 0.3% BSA at 10^7 cells/ml. Cells were pre-warmed
# (§11) at 37°C for 20 min. After adding the effector dilutions in the lower compartment of 24-well plates
# (§12) (800 µl/well), a Millicell culture plate insert with 5 µm pore size was placed in each well, f ollowed
# (§13) by immediate addition of 200 µl (2 million) leuk ocytes. In one well, the cells were added without
# (§14) a f ilter insert, allowing determination of the input number. The plate was incubated at 37°C and
# (§15) 5% CO2 f or 45 min. 5 mM EDTA solution was added and the plate was incubated f or another
# (§16) 10 min at 37 °C. […]
# Phorbol
# as §1, §2, §3, §4, §5, §6, §7, §8
# mice = assay: Immune activation assays (Figure S2C,D); type: cell-based, Mouse; details: compared with human cells
# Protocol: as §9, §10, §11, §12, §13, §14, §15, §16
# (§17) determined using a Neubauer chamber, or the numbers of transmigrated monocytes ,
# (§18) granulocytes and lymphocytes were determined by flow cytometry (discriminating c e ll […]
# (§19) 37°C and 5% CO2. Macrophages on the bottom side of the f ilter were counted. […]
# (§20) J software, means and standard deviations were calculated and presented as absolute […]
# (§21) Activation of the oxidative burst (phagocyte NADPH oxidase) was measured using a […]
# (§22) 150 µl were stored at - 80 °C until cytokine levels were measured with commercially available
# (§23) ELISA kits (Ready-set-go system, eBiosciences). […]
# (§24) were measured and calculated based on the standards included wit hin the ELISA kits and as […]
# (§25) analysis. Measured cytok ine levels were normalized to 1 (the average of the two unstimulated
# guinea pigs = assay: Immune activation assays (Figure S2C,D); type: cell-based, Guinea pig; details: compared with human cells
# Protocol: as §9, §10, §11, §12, §13, §14, §15, §16, §17, §18, §19, §20, §21, §22, §23, §24, §25
# integrin α3 = molecular target: T1, integrin α3 (Homo sapiens, UniProt P26006); assay: Displacement of anti-CD49c-PE conjugate (flow cytometry); type: binding; details: increasing peptide concentrations, 2 mM MnCl2, 30 min on ice, flow cytometry (PE channel)
# T1 construct: endogenous in cells
# T1 sequence (P26006 33-872 limits assumed): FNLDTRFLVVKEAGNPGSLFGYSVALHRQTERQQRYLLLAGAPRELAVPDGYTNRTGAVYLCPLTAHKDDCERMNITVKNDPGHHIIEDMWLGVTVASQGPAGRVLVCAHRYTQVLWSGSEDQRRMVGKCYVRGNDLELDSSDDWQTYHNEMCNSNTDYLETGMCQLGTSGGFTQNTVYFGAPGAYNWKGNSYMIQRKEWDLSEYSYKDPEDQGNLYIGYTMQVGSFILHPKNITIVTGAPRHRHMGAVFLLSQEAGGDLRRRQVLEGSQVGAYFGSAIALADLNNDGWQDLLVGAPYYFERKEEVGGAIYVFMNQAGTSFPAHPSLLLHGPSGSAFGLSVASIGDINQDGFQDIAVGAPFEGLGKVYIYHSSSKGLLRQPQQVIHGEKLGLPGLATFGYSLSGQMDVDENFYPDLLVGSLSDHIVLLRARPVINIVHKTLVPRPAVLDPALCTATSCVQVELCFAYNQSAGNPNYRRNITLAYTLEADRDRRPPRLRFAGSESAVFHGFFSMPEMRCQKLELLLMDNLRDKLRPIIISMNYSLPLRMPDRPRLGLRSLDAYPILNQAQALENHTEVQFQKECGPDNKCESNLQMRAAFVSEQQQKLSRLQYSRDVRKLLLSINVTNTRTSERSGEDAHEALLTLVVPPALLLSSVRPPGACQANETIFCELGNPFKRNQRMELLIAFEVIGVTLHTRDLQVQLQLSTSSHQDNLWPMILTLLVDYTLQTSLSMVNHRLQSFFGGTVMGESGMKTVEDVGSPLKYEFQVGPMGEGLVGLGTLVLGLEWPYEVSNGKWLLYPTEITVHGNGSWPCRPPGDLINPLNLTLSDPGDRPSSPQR
# T1 sequence (P26006 876-1051 partner limits assumed): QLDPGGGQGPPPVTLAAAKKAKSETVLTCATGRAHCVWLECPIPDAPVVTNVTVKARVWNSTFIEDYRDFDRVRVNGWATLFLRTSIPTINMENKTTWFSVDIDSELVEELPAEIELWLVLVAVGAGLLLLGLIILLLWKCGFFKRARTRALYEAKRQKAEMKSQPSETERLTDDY
# T1 sequence (P05556 21-798 partner): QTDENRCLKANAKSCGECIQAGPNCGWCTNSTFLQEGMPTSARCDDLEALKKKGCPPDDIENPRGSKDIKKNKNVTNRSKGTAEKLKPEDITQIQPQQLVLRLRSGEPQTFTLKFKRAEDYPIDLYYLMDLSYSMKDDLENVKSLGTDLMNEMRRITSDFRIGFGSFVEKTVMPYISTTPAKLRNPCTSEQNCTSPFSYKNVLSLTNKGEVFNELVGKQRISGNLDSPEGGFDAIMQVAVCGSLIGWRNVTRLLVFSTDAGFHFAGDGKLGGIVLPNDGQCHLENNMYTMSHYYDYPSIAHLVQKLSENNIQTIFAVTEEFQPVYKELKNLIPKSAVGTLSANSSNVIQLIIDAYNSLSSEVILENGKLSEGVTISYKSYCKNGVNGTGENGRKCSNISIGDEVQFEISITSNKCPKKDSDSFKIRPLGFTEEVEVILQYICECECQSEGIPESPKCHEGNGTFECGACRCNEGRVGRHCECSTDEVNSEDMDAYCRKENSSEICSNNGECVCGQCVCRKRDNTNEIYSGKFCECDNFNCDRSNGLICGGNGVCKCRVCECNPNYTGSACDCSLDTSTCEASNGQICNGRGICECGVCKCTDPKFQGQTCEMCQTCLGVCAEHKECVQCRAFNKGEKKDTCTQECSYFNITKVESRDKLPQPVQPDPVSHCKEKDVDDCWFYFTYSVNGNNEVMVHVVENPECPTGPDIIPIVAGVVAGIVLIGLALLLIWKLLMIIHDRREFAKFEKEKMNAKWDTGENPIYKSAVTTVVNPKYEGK
SMILES,loss of potency for neutrophil activation (superoxide production) when linked to the PEG chains (human granulocytes),loss of potency to induce chemotaxis when linked to the PEG chains (human leukocytes),immune activation in mice (mice),immune activation in guinea pigs (guinea pigs),displacement of anti-CD49c-PE conjugate (integrin α3)
CSCC[C@H](NC=O)C(=O)N[C@@H](CC(C)C)C(=O)N[C@@H](Cc1ccccc1)C(=O)NCC(=O)NCC(=O)N[C@@H](CCCCNC(=O)CCOCCOCCOCCOCCOCCOCCOCCOCCOCCOCCOCCOCCOCCOCCOCCOCCOCCOCCOCCOCCOCCOCCOCCOCCOCCOCCOCCOCCN)C(=O)N[C@@H](CCCCNC(=O)CCOCCOCCOCCOCCOCCOCCOCCOCCOCCOCCOCCOCCOCCOCCOCCOCCOCCOCCOCCOCCOCCOCCOCCOCCOCCOCCOCCOCCN)C(=O)O [F1-2PEG] (For-MLFGGK(PEG28)K(PEG28)-OH),two,two,less potent immune activators,less potent immune activators,
NC(=O)C[C@@H]1NC(=O)[C@@H]2C[C@@H](O)CN2C(=O)CNC(=O)[C@H](Cc2ccc(O)c([N+](=O)[O-])c2)NC(=O)CNC(=O)[C@@H](CC(=O)O)NC(=O)[C@H](N)CSSC[C@H](C(=O)O)NC1=O [B9] (H-[dC][dD]G[Tyr(3-NO2)]G[Hyp]N[dC]-OH; disulfide 1-8),,,,,competes
